Test results from US20230391786A1, “cGAS INHIBITORS” (Eli Lilly and Company, priority 2022, published 2023).

These compounds were tested against recombinant human cGAS (Homo sapiens (Human), UniProt Q8N884) (assay: In vitro inhibition assay of cGAS activity (cGAMP production, RapidFire mass spectrometry)). Settings: 10 nM recombinant human cGAS, 60 nM 75-bp dsDNA, ATP, GTP, room temperature 3 hours, read-out: IC50 (μM), In vitro inhibition assay for Compounds 1-94.
Format: biochemical
Method: Expression and Purification of Recombinant cGAS Protein: Insert cDNA encoding full-length of human cGAS into a modified bacterial expression vector containing an in-frame His6-tag. Induce the E. coli strain BL21(DE3) harboring the plasmid with 1 mM IPTG (Isopropyl β-D-1-thiogalactopyranoside) at 18° C. overnight. Purify the His6-tagged cGAS protein over HISpur Ni-NTA resin in the presence of benzonase and RNase followed by Superdex 200 size exclusion chromatography with storage buffer (50 mM Tris-HCl pH 7.5, 300 mM NaCl, 1 mM DTT, 10% glycerol).
In vitro inhibition assay of cGAS activity: Add a 5 μL mixture containing 10 mM Tris-Cl pH 7.5, 50 mM NaCl, 5 mM MgCl2, 1 mM DTT, 0.01% Triton X-100, 60 nM 75-bp dsDNA, […], 50 μM GTP, 10 nM of recombinant human cGAS, and serial dilutions of a test compound in DMSO to a 384-well plate and incubate at room temperature for 3 hours. Quench the reaction by the addition of 100 μL of stop solution containing 0.1% formic acid and 0.1 μM internal standard (3′3′-difluoro cGAMP). Measure the amount of cGAMP produced by RapidFire 365 mass spectrometry and evaluate inhibitory effect of a compound by plotting percent specific inhibition of cGAMP production against log concentration of the test compound. Calculate IC50 values using a 4-parameter non-linear logistic equation (y=(S0+((SInf−S0)/(1+((qAC50/x)^nHill))))).

Sequence of recombinant human cGAS (Q8N884 whole entry): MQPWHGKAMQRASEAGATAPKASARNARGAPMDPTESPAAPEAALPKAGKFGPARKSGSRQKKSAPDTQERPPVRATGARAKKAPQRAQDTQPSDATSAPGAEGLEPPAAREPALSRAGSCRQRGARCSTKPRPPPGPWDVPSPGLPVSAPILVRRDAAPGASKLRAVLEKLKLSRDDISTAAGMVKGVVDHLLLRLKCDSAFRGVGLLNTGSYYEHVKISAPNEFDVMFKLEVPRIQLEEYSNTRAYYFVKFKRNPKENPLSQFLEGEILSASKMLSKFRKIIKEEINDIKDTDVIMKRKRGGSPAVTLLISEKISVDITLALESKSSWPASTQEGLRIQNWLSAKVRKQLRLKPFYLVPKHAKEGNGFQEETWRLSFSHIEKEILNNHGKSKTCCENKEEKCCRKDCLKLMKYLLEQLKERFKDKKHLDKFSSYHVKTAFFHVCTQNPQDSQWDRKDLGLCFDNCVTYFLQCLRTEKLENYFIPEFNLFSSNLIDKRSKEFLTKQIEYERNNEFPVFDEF

IC50 [µM] | Compound
0.0772 | N#CCOc1cc(Cl)c(F)c2[nH]cc(-n3ccnc3)c12 [Example 72, 2-[(6-Chloro-7-fluoro-3-imidazol-1-yl-1H-indol-4-yl)oxy]acetonitrile]
0.0674 | OCC1CCn2c(c(-c3cn[nH]c3)c3ccc(Cl)c(Cl)c32)C1 (single isomer, unassigned) [Example 16, [3,4-Dichloro-10-(1H-pyrazol-4-yl)-6,7,8,9-tetrahydropyrido[1,2-a]indol-8-yl]methanol]
0.0157 | O=C(O)C1CCCc2c(-c3cn[nH]c3)c3ccc(Cl)c(Cl)c3n2C1 (stereo not drawn) [Example 77, 3,4-Dichloro-11-(1H-pyrazol-4-yl)-7,8,9,10-tetrahydro-6H-azepino[1,2-a]indole-7-carboxylic acid]
0.0737 | O=C(O)CCn1cc(-c2cn[nH]c2)c2ccc(Cl)c(Cl)c21 [Example 35, 3-[6,7-Dichloro-3-(1H-pyrazol-4-yl)indol-1-yl]propanoic acid]
0.0243 | CC(=O)NC1CCc2c(-c3cn[nH]c3)c3ccc(Cl)c(Cl)c3n2C1 (single isomer, unassigned) [Example 21, N-[3,4-Dichloro-10-(1H-pyrazol-4-yl)-6,7,8,9-tetrahydropyrido[1,2-a]indol-7-yl]acetamide]
0.0534 | CN(C)C(=O)CCC(=O)N1CCn2c(c(-c3cn[nH]c3)c3ccc(Cl)c(Cl)c32)C1 [Example 44, 4-[6,7-dichloro-10-(1H-pyrazol-4-yl)-3,4-dihydro-1H-pyrazino[1,2-a]indol-2-yl]-N,N-dimethyl-4-oxo-butanamide]
0.0663 | OC1CCc2c(-c3cn[nH]c3)c3ccc(Cl)c(Cl)c3n2C1 (single isomer, unassigned) [Example 19, 3,4-Dichloro-10-(1H-pyrazol-4-yl)-6,7,8,9-tetrahydropyrido[1,2-a]indol-7-ol]
0.0826 | CCOc1cc(Cl)c(Cl)c2[nH]cc(-c3cn[nH]c3)c12 [Example 56, 6,7-Dichloro-4-ethoxy-3-(1H-pyrazol-4-yl)-1H-indole]
0.0525 | NS(=O)(=O)N1CCn2c(c(-c3cn[nH]c3)c3ccc(Cl)c(Cl)c32)C1 [Example 40, 6,7-dichloro-10-(1H-pyrazol-4-yl)-3,4-dihydro-1H-pyrazino[1,2-a]indole-2-sulfonamide]
0.0815 | CS(=O)(=O)NCCn1cc(-c2cn[nH]c2)c2c(OCC#N)cc(Cl)c(Cl)c21 [Example 84, N-[2-[6,7-Dichloro-4-(cyanomethoxy)-3-(1H-pyrazol-4-yl)indol-1-yl]ethyl]methanesulfonamide]
0.0834 | O=C(CN1CCOCC1)N1CCn2c(c(-c3cn[nH]c3)c3ccc(Cl)c(Cl)c32)C1 [Example 45, 1-[6,7-dichloro-10-(1H-pyrazol-4-yl)-3,4-dihydro-1H-pyrazino [1,2-a]indole-2-yl]-2-morpholino-ethanone]
0.0392 | CNC(=O)N1CCn2c(c(-c3cn[nH]c3)c3ccc(Cl)c(Cl)c32)C1 [Example 39, 6,7-dichloro-N-methyl-10-(1H-pyrazol-4-yl)-3,4-dihydro-1H-pyrazino[1,2-a]indole-2-carboxamide]
0.0158 | N#CCOc1cc(Cl)c(Cl)c2[nH]cc(-c3cn[nH]c3)c12 [Example 58, 2-[[6,7-Dichloro-3-(1H-pyrazol-4-yl)-1H-indol-4-yl]oxy]acetonitrile]
0.0649 | Cn1cnnc1NCc1[nH]c2c(Cl)c(Cl)ccc2c1-c1cn[nH]c1 [Example 12, N-[[6,7-Dichloro-3-(1H-pyrazol-4-yl)-1H-indol-2-yl]methyl]-4-methyl-1,2,4-triazol-3-amine]
0.0371 | O[C@H]1C[C@@H](Nc2cc(Cl)c(Cl)c3[nH]cc(-c4cn[nH]c4)c23)C1 [Example 67, (cis)-3-((6,7-Dichloro-3-(1H-pyrazol-4-yl)-1H-indol-4-yl)amino)cyclobutanol]
0.0855 | CC(C#N)Oc1cc(Cl)c(Cl)c2[nH]cc(-c3cn[nH]c3)c12 (stereo not drawn) [Example 60, 2-[[6,7-Dichloro-3-(1H-pyrazol-4-yl)-1H-indol-4-yl]oxy]propanenitrile]
0.0412 | O=C(O)C1CCCn2c(c(-c3cn[nH]c3)c3ccc(Cl)c(Cl)c32)C1 (single isomer, unassigned) [Example 25, 3,4-Dichloro-11-(1H-pyrazol-4-yl)-7,8,9,10-tetrahydro-6H-azepino[1,2-a]indole-9-carboxylic acid]
0.152 | OC1CCc2c(-c3cn[nH]c3)c3ccc(Cl)c(Cl)c3n2C1 (single isomer, unassigned) [Example 18, 3,4-Dichloro-10-(1H-pyrazol-4-yl)-6,7,8,9-tetrahydropyrido[1,2-a]indol-7-ol]
0.0158 | O=C(CO)Nc1cc(Cl)c(Cl)c2[nH]cc(-c3cn[nH]c3)c12 [Example 65, N-[6,7-Dichloro-3-(1H-pyrazol-4-yl)-1H-indol-4-yl]-2-hydroxy-acetamide]
0.027 | Cn1ncnc1COCC(=O)N1CCn2c(c(-c3cn[nH]c3)c3ccc(Cl)c(Cl)c32)C1 [Example 46, 1-[6,7-dichloro-10-(1H-pyrazol-4-yl)-3,4-dihydro-1H-pyrazino[1,2-a]indol-2-yl]-2-[(2-methyl-1,2,4-triazol-3-yl)methoxy]ethanone]
0.0427 | OC1CCCc2c(-c3cn[nH]c3)c3ccc(Cl)c(Cl)c3n2C1 (stereo not drawn) [Example 78, 3,4-Dichloro-11-(1H-pyrazol-4-yl)-7,8,9,10-tetrahydro-6H-azepino[1,2-a]indol-7-ol]
0.0462 | O=C1NCCn2c1c(-c1cn[nH]c1)c1ccc(Cl)c(Cl)c12 [Example 31, 6,7-Dichloro-10-(1H-pyrazol-4-yl)-3,4-dihydro-2H-pyrazino[1,2-a]indol-1-one]
0.0754 | CN1CCn2c(c(-c3cn[nH]c3)c3ccc(Cl)c(Cl)c32)C1=O [Example 83, 6,7-Dichloro-2-methyl-10-(1H-pyrazol-4-yl)-3,4-dihydropyrazino[1,2-a]indol-1-one]

Same assay, conditions: 10 nM recombinant human cGAS, 60 nM 75-bp dsDNA, ATP, GTP, room temperature 3 hours, read-out: IC50 (μM), In vitro inhibition assay for Compounds 95-348

IC50 [µM] | Compound
0.0509 | O=C1CCCN1CC(=O)N1CCn2c(c(-c3cn[nH]c3)c3ccc(Cl)c(Cl)c32)C1 [Example 316, 1-(2-(6,7-Dichloro-10-(1H-pyrazol-4-yl)-3,4-dihydropyrazino[1,2-a]indol-2(1H)-yl)-2-oxoethyl)pyrrolidin-2-one]
0.0985 | COC1(C(=O)N2CCn3c(c(-c4cn[nH]c4)c4ccc(Cl)c(Cl)c43)C2)CCOC1 (stereo not drawn) [Example 334, (6,7-Dichloro-10-(1H-pyrazol-4-yl)-3,4-dihydropyrazino[1,2-a]indol-2(1H)-yl)(3-methoxytetrahydrofuran-3-yl)methanone]
0.0585 | CCNC(=O)COCC(=O)N1CCn2c(c(-c3cn[nH]c3)c3ccc(Cl)c(Cl)c32)C1 [Example 179, 2-[2-[6,7-Dichloro-10-(1H-pyrazol-4-yl)-3,4-dihydro-1H-pyrazino[1,2-a]indol-2-yl]-2-oxo-ethoxy]-N-ethyl-acetamide]
0.0627 | CN1C(=O)CCC1C(=O)N1CCn2c(c(-c3cn[nH]c3)c3ccc(Cl)c(Cl)c32)C1 (stereo not drawn) [Example 326, 5-(6,7-Dichloro-10-(1H-pyrazol-4-yl)-1,2,3,4-tetrahydropyrazino[1,2-a]indole-2-carbonyl)-1-methylpyrrolidin-2-one]
0.0872 | O=C(NCc1[nH]c2c(Cl)c(Cl)ccc2c1-c1cn[nH]c1)c1cscn1 [Example 104, N-((6,7-Dichloro-3-(1H-pyrazol-4-yl)-1H-indol-2-yl)methyl)thiazole-4-carboxamide]
0.0705 | O=C1Cn2c(c(-c3cn[nH]c3)c3ccc(Cl)c(Cl)c32)CC(CO)N1 (stereo not drawn) [Example 101, 7,8-Dichloro-2-(hydroxymethyl)-11-(1H-pyrazol-4-yl)-2,3-dihydro-1H-[1,4]diazepino[1,7-a]indol-4(5H)-one]
0.0524 | COCC(=O)N(C)CC(=O)N1CCn2c(c(-c3cn[nH]c3)c3ccc(Cl)c(Cl)c32)C1 [Example 318, N-(2-(6,7-Dichloro-10-(1H-pyrazol-4-yl)-3,4-dihydropyrazino[1,2-a]indol-2(1H)-yl)-2-oxoethyl)-2-methoxy-N-methylacetamide]
0.0918 | COCC(=O)NC(C)C(=O)N1CCn2c(c(-c3cn[nH]c3)c3ccc(Cl)c(Cl)c32)C1 (stereo not drawn) [Example 333, N-(1-(6,7-Dichloro-10-(1H-pyrazol-4-yl)-3,4-dihydropyrazino[1,2-a]indol-2(1H)-yl)-1-oxopropan-2-yl)-2-methoxyacetamide]
0.0468 | COCCN1CC(C(=O)N2CCn3c(c(-c4cn[nH]c4)c4ccc(Cl)c(Cl)c43)C2)CC1=O (stereo not drawn) [Example 312, 4-(6,7-dichloro-10-(1H-pyrazol-4-yl)-1,2,3,4-tetrahydropyrazino[1,2-a]indole-2-carbonyl)-1-(2-methoxyethyl)pyrrolidin-2-one]
0.0534 | CN1CC(C(=O)N2CCn3c(c(-c4cn[nH]c4)c4ccc(Cl)c(Cl)c43)C2)CC1=O (stereo not drawn) [Example 319, 4-(6,7-Dichloro-10-(1H-pyrazol-4-yl)-1,2,3,4-tetrahydropyrazino[1,2-a]indole-2-carbonyl)-1-methylpyrrolidin-2-one]
